# Data published in paper PMC7377239, “Cardiovascular Effects of Polychlorinated Biphenyls and Their Major Metabolites” (Environmental Health Perspectives, 2020).
# Like-named read-outs stand apart in the source and are kept apart here.
# Key:
# [1] = test system: iCell cardiomyocytes (human iPSC-derived cardiomyocytes); assay: High-content imaging of cytotoxicity and mitochondrial integrity in iPSC-CMs; type: cell-based; conditions: Homo sapiens, Cardiomyocyte; for viability at 0.01 µM / activity at 0.01 µM / viability at 0.1 µM / activity at 0.1 µM / viability at 1 µM / activity at 1 µM / viability at 10 µM / activity at 10 µM / viability at 100 µM / activity at 100 µM: 0.00 µM = 100.00; for viability at 0.1 µM / activity at 0.1 µM: 0.10 µM
# How it was run: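 Readouts from high-content images were normalized to vehicle controls containing 0.5% vol/vol DMSO. They were fit to a four-parameter logistic model in R. Points of departure were set using a cutoff of one standard deviation across vehicle control means. Where no concentration–response was seen, the top tested concentration of 100μM was assigned as the no observable adverse effect level.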
# [2] = test system: HUVECs; assay: High-content imaging cytotoxicity in HUVECs, 24 h; type: cell-based, human; conditions: Homo sapiens, HUVEC, 24 h, HUVECs; for viability at 0.01 µM / activity at 0.01 µM / viability at 0.1 µM / activity at 0.1 µM / viability at 1 µM / activity at 1 µM / viability at 10 µM / activity at 10 µM / viability at 100 µM / activity at 100 µM: 0.00 µM = 100.00; for viability at 0.1 µM / activity at 0.1 µM: 0.10 µM; for minimal effective concentration: top concentration 100.00 µM
# How it was run: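 HUVECs (passages 1–5) grown to monolayer over 3–5 d, then exposed 24 h at 37°C, 5% CO2; stained with Hoechst 33342, MitoTracker Orange and calcein AM and imaged at 10×. Readouts normalized to 0.5% DMSO vehicle, four-parameter logistic fit; POD at one-SD cutoff, 100μM assigned when no response.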
# [3] = 1.5 h, 90min, read-out: cm.cam.90min
# [4] = 1.5 h, 90min, read-out: cm.mii.90min
# [5] = 1.5 h, 90min, read-out: cm.mito.90min
# [6] = 1.5 h, 90min, read-out: cm.tc.90min
# [7] = 24 h, 24hrs, read-out: cm.cam.24hrs
# [8] = 24 h, 24hrs, read-out: cm.mii.24hrs
# [9] = 24 h, 24hrs, read-out: cm.mito.24hrs
# [10] = 24 h, 24hrs, read-out: cm.tc.24hrs
# [11] = 24 hr, read-out: huvec.cyto.24hr
# [12] = 24 hr, read-out: huvec.mito.24hr
# [13] = 24 hr, read-out: huvec.mitoint.24hr
# [14] = 24 hr, read-out: huvec.nma.24hr
# [15] = 24 hrs, read-out: huvec.tc.24hrs
smiles,measurement,setting,value
Clc1ccc(Cl)c(-c2cc(Cl)ccc2Cl)c1 [PCB52],viability at 0.01 µM,[1]; [3],98.6%
same,activity at 0.01 µM,[1]; [4],115%
same,activity at 0.01 µM,[1]; [5],98.4%
same,viability at 0.01 µM,[1]; [6],98.4%
same,viability at 0.1 µM,[1]; [3],95.8%
same,activity at 0.1 µM,[1]; [4],118%
same,activity at 0.1 µM,[1]; [5],95.7%
same,viability at 0.1 µM,[1]; [6],95.6%
same,viability at 1 µM,[1]; [3],101%
same,activity at 1 µM,[1]; [4],107%
same,activity at 1 µM,[1]; [5],102%
same,viability at 1 µM,[1]; [6],102%
same,viability at 10 µM,[1]; [3],106%
same,activity at 10 µM,[1]; [4],94.2%
same,activity at 10 µM,[1]; [5],106%
same,viability at 10 µM,[1]; [6],106%
same,viability at 100 µM,[1]; [3],0.44%
same,activity at 100 µM,[1]; [4],12.8%
same,activity at 100 µM,[1]; [5],0.55%
same,viability at 100 µM,[1]; [6],1.04%
same,minimal effective concentration,"[1]; 1.5 h, 90min, read-out: cm.cam.90min POD",36 µM
same,minimal effective concentration,"[1]; 1.5 h, 90min, read-out: cm.mii.90min POD",10.4 µM
same,minimal effective concentration,"[1]; 1.5 h, 90min, read-out: cm.mito.90min POD",39.2 µM
same,minimal effective concentration,"[1]; 1.5 h, 90min, read-out: cm.tc.90min POD",38.9 µM
same,viability at 0.01 µM,[1]; [7],93.5%
same,activity at 0.01 µM,[1]; [8],103%
same,activity at 0.01 µM,[1]; [9],91.8%
same,viability at 0.01 µM,[1]; [10],94.3%
same,viability at 0.1 µM,[1]; [7],98.9%
same,activity at 0.1 µM,[1]; [8],117%
same,activity at 0.1 µM,[1]; [9],99.3%
same,viability at 0.1 µM,[1]; [10],98.8%
same,viability at 1 µM,[1]; [7],95.8%
same,activity at 1 µM,[1]; [8],112%
same,activity at 1 µM,[1]; [9],95.8%
same,viability at 1 µM,[1]; [10],96.3%
same,viability at 10 µM,[1]; [7],92%
same,activity at 10 µM,[1]; [8],103%
same,activity at 10 µM,[1]; [9],90.3%
same,viability at 10 µM,[1]; [10],92.3%
same,viability at 100 µM,[1]; [7],3.37%
same,activity at 100 µM,[1]; [8],5.38%
same,activity at 100 µM,[1]; [9],0.14%
same,viability at 100 µM,[1]; [10],7.71%
same,minimal effective concentration,"[1]; 24 h, read-out: cm.cam.24hrs POD",7.5 µM
same,minimal effective concentration,"[1]; 24 h, read-out: cm.mii.24hrs POD",34.4 µM
same,minimal effective concentration,"[1]; 24 h, read-out: cm.mito.24hrs POD",7.32 µM
same,minimal effective concentration,"[1]; 24 h, read-out: cm.tc.24hrs POD",8.11 µM
same,viability at 0.01 µM,[2]; [11],94.7%
same,activity at 0.01 µM,[2]; [12],94.8%
same,activity at 0.01 µM,[2]; [13],107%
same,activity at 0.01 µM,[2]; [14],101%
same,viability at 0.1 µM,[2]; [11],97.3%
same,activity at 0.1 µM,[2]; [12],96.5%
same,activity at 0.1 µM,[2]; [13],116%
same,activity at 0.1 µM,[2]; [14],97.7%
same,viability at 1 µM,[2]; [11],92.5%
same,activity at 1 µM,[2]; [12],92%
same,activity at 1 µM,[2]; [13],106%
same,activity at 1 µM,[2]; [14],100%
same,viability at 10 µM,[2]; [11],66.8%
same,activity at 10 µM,[2]; [12],60%
same,activity at 10 µM,[2]; [13],55.7%
same,activity at 10 µM,[2]; [14],74.2%
same,viability at 100 µM,[2]; [11],45%
same,activity at 100 µM,[2]; [12],20.7%
same,activity at 100 µM,[2]; [13],14.1%
same,activity at 100 µM,[2]; [14],49.2%
same,minimal effective concentration,"[2]; 24 hr, read-out: huvec.cyto.24hr POD",0.67 µM
same,minimal effective concentration,"[2]; 24 hr, read-out: huvec.mito.24hr POD",0.57 µM
same,minimal effective concentration,"[2]; 24 hr, read-out: huvec.mitoint.24hr POD",6.01 µM
same,minimal effective concentration,"[2]; 24 hr, read-out: huvec.nma.24hr POD",4.97 µM
same,viability at 0.01 µM,[2]; [15],94.7%
same,viability at 0.1 µM,[2]; [15],97.3%
same,viability at 1 µM,[2]; [15],92.5%
same,viability at 10 µM,[2]; [15],66.8%
same,viability at 100 µM,[2]; [15],45%
same,minimal effective concentration,"[2]; 24 hrs, read-out: huvec.tc.24hrs POD",0.67 µM
